From patent US9493441B2, “Acyclic cyanoethylpyrazoles as janus kinase inhibitors” (Merck Sharp & Dohme Corp., priority 2011, dated 2016) come the findings set out here.

The target in one assay is JAK2 (Homo sapiens (Human), UniProt O60674). The assay is described as follows: Jak biochemical HTRF assay, JAK2. (In general: In TR-FRET formats the signal depends on donor and acceptor labels being close together.)
The target of a further assay is JAK1 (Homo sapiens (Human), UniProt P23458). Briefly: Jak biochemical HTRF assay, JAK1.
[1] abbreviates: JAK2 IC50 (nM), recombinant GST-tagged catalytic domain, [ATP] […].
The mark [2] stands for this setting: JAK1 IC50 (nM), recombinant GST-tagged catalytic domain, [ATP] 31.8 μM.
Setting [3] is: read-out: JAK2 IC50, recombinant GST-tagged catalytic domain, [ATP] […].
[4] abbreviates: read-out: JAK1 IC50, recombinant GST-tagged catalytic domain, [ATP] 31.8 μM.

Like-named read-outs stand apart in the source and are kept apart here.

JAK1, sequence (P23458 875-1153): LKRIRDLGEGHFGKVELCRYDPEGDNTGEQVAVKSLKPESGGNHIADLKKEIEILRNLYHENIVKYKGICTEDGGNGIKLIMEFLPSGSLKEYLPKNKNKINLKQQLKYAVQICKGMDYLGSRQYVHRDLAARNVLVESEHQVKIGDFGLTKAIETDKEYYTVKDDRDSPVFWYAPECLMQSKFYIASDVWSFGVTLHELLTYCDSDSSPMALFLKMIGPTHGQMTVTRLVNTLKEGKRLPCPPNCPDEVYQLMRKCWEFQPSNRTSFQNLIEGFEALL
JAK2, sequence (O60674 849-1124): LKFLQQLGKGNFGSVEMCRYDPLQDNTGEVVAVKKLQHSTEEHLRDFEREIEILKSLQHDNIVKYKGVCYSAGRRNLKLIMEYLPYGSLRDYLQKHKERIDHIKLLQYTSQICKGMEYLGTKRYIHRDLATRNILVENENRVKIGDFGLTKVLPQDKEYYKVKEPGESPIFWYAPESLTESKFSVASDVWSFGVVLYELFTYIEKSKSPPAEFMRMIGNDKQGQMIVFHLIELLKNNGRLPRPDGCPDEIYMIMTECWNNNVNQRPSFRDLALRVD

Usually IC50 stands for the concentration that gives 50% inhibition. With `CCOC(=O)N1CCC([C@H](CC#N)n2cc(C(N)=O)c(Nc3ccc(F)cc3)n2)CC1` (single isomer, unassigned) [Example 12-4, ethyl 4-[(1S or 1R)-1-{4-carbamoyl-3-[(4-fluorophenyl)amino]-1H-pyrazol-1-yl}-2-cyanoethyl]piperidine-1-carboxylate], the IC50 on JAK2 (setting [1]) was 1050 nM; at JAK1 (setting [2]), 44 nM.

In the case of `N#CCC(C1CC1)n1cc(C(N)=O)c(Nc2cccc(CO)c2)n1` (stereo not drawn) [Example 4-10, 1-(2-cyano-1-cyclopropylethyl)-3-{[3-(hydroxymethyl)phenyl]amino}-1H-pyrazole-4-carboxamide], the IC50 on JAK2 (setting [1]) amounted to 41 nM; at JAK1 (setting [2]) it was 12 nM.

`N#CCC(C1CC1)n1cc(C(N)=O)c(Nc2ccc3c(c2)CCC3=O)n1` (stereo not drawn) [Example 4-19, 1-(2-cyano-1-cyclopropylethyl)-3-[(1-oxo-2,3-dihydro-1H-inden-5-yl)amino]-1H-pyrazole-4-carboxamide]: the IC50 on JAK2 (setting [1]) amounted to 17 nM; on JAK1 (setting [2]), 2 nM.

As for `CC(C)(C)OC(=O)N1CCC(C(C)(CC#N)n2cc(C(N)=O)c(Nc3ccccc3)n2)CC1` (stereo not drawn) [Example 3-3, tert-butyl 4-{2-[4-carbamoyl-3-(phenylamino)-1H-pyrazol-1-yl]-1-cyanopropan-2-yl}piperidine-1-carboxylate], the half-maximal inhibitory concentration (IC50) on JAK2 (setting [1]) was found to be 236 nM; at JAK1 (setting [2]) it was 5 nM.

For `C[C@H](C#N)[C@H](C)n1cc(C(N)=O)c(Nc2ccccc2)n1` (mixture of isomers) [Example 1-22, 1-((2S, 3S and 2R, 2R)-3-cyclobutan-2-yl)-3-(phenylamino)-1H-pyrazole-4-carboxamide], the IC50 was 198 nM at JAK2 (setting [1]) and 32 nM at JAK1 (setting [2]).

As for `CC[C@H](CC#N)n1cc(C(N)=O)c(Nc2ccccc2)n1` (single isomer, unassigned) [Example 16-1, 1-[(1R or 1S)-1-(cyanomethyl)propyl]-3-(phenylamino)-1H-pyrazole-4-carboxamide], the IC50 at JAK2 (setting [3]) came out at 578 nM; at JAK1 (setting [4]), 43 nM.

As to `N#CCC(C1CC1)n1cc(C(N)=O)c(Nc2ccccc2F)n1` (stereo not drawn) [Example 4-5, 1-(2-cyano-1-cyclopropylethyl)-3-[(2-fluorophenyl)amino]-1H-pyrazole-4-carboxamide], the IC50 amounted to 1480 nM at JAK2 (setting [1]) and 360 nM on JAK1 (setting [2]).

Consider `CS(=O)(=O)c1ccc(Nc2nn(C(CC#N)C3CC3)cc2C(N)=O)cc1` (stereo not drawn) [Example 4-1, 1-(2-Cyano-1-cyclopropylethyl)-3-{[4-(methylsulfonyl)phenyl]amino}-1H-pyrazole-4-carboxamide], for which the figures for the 50% inhibitory concentration (IC50) on JAK2 (setting [1]) and on JAK1 (setting [2]) were 28 nM and 3 nM, respectively.

`CCC(CC#N)n1cc(C(N)=O)c(Nc2ccccc2)n1` (stereo not drawn) [Example 1-7, 1-[1-(cyanomethyl)propyl]-3-(phenylamino)-1H-pyrazole-4-carboxamide]: the IC50 was 546 nM at JAK2 (setting [1]) and 48 nM on JAK1 (setting [2]).

On to `N#CCC(C1CC1)n1cc(C(N)=O)c(Nc2ccc(C#N)cc2)n1` (stereo not drawn) [Example 4-14, 1-(2-cyano-1-cyclopropylethyl)-3-[(4-cyanophenyl)amino]-1H-pyrazole-4-carboxamide], for which the figures for the IC50 at JAK2 (setting [1]) and at JAK1 (setting [2]) were 33 nM and 5 nM, respectively.

As to `COCC(C)OC(=O)N1CCC([C@H](CC#N)n2cc(C(N)=O)c(Nc3ccc(F)cc3)n2)CC1` (stereo partly drawn) [Example 11-9, 2-methoxy-1-methylethyl 4-[(1S)-1-{4-carbamoyl-3-[(4-fluorophenyl)amino]-1H-pyrazol-1-yl}-2-cyanoethyl]piperidine-1-carboxylate], the half-inhibitory concentration (IC50) on JAK2 (setting [1]) is 1030 nM; on JAK1 (setting [2]) it was 108 nM.

With `N#CCC(C1CCCC1)n1cc(C(N)=O)c(Nc2ccccc2)n1` (stereo not drawn) [Example 1-20, 1-(2-cyano-1-cyclopentylethyl)-3-(phenylamino)-1H-pyrazole-4-carboxamide], the values for the 50% inhibitory concentration (IC50) on JAK2 (setting [1]) and on JAK1 (setting [2]) were 474 nM and 69 nM, respectively.

On to `N#CC[C@@H](C1CCN(C(=O)OCC2CC2)CC1)n1cc(C(N)=O)c(Nc2ccc(F)cc2)n1` [Example 11-10, cyclopropylmethyl 4-[(1S)-1-{4-carbamoyl-3-[(4-fluorophenyl)amino]-1H-pyrazol-1-yl}-2-cyanoethyl]piperidine-1-carboxylate], for which the IC50 on JAK2 (setting [1]) was 1160 nM; on JAK1 (setting [2]), 44 nM.

Turning to `N#CCC(C1CC1)n1cc(C(N)=O)c(Nc2ccc3c(c2)CN(CC(=O)O)C3=O)n1` (stereo not drawn) [Example 8, (5-{[4-Carbamoyl-1-(2-cyano-1-cyclopropylethyl)-1H-pyrazol-3-yl]amino}-1-oxo-1,3-dihydro-2H-isoindol-2-yl)acetic acid], the IC50 worked out at 34 nM on JAK2 (setting [1]) and 1 nM at JAK1 (setting [2]).

With `N#CC[C@@H](C1CCN(C(=O)OC2CCCCC2)CC1)n1cc(C(N)=O)c(Nc2ccc(F)cc2)n1` (single isomer, unassigned) [Example 12-5, cyclohexyl 4-[(1S or 1R)-1-{4-carbamoyl-3-[(4-fluorophenyl)amino]-1H-pyrazol-1-yl}-2-cyanoethyl]piperidine-1-carboxylate], the IC50 on JAK2 (setting [1]) amounted to 1500 nM; on JAK1 (setting [2]) it was 628 nM.

As to `CN(C)S(=O)(=O)c1ccc(Nc2nn(C(CC#N)C3CC3)cc2C(N)=O)cc1` (stereo not drawn) [Example 6-4, 1-(2-cyano-1-cyclopropylethyl)-3-{[4-(dimethylsulfamoyl)phenyl]amino}-1H-pyrazole-4-carboxamide], the IC50 amounted to 3 nM on JAK2 (setting [1]) and 1 nM at JAK1 (setting [2]).

Take `CC(C)(C)COC(=O)N1CCC([C@H](CC#N)n2cc(C(N)=O)c(Nc3ccc(F)cc3)n2)CC1` (single isomer, unassigned) [Example 12-2, 2,2-dimethylpropyl 4-[(1S or 1R)-1-{4-carbamoyl-3-[(4-fluorophenyl)amino]-1H-pyrazol-1-yl}-2-cyanoethyl]piperidine-1-carboxylate]: the figures for the IC50 at JAK2 (setting [1]) and on JAK1 (setting [2]) were 1500 nM and 718 nM, respectively.

With `N#CCC(C1CCCOC1)n1cc(C(N)=O)c(Nc2ccccc2)n1` (stereo not drawn) [Example 1-15, 1-[2-cyano-1-(tetrahydro-2H-pyran-3-yl)ethyl]-3-(phenylamino)-1H-pyrazole-4-carboxamide], the IC50 was determined as 1480 nM at JAK2 (setting [1]) and 501 nM on JAK1 (setting [2]).

In the case of `COC(=O)N1CCC(C(CC#N)n2cc(C(N)=O)c(Nc3ccc(F)cc3)n2)CC1` (stereo not drawn) [Example 11-2, methyl 4-(1-{4-carbamoyl-3-[(4-fluorophenyl)amino]-1H-pyrazol-1-yl}-2-cyanoethyl)piperidine-1-carboxylate], the concentration for half-maximal inhibition (IC50) on JAK2 (setting [1]) stood at 890 nM; at JAK1 (setting [2]), 55 nM.

Take `N#CCC(C1CCC1)n1cc(C(N)=O)c(Nc2ccccc2)n1` (stereo not drawn) [Example 1-19, 1-(2-cyano-1-cydobutylethyl)-3-(phenylamino)-1H-pyrazole-4-carboxamide]: the half-inhibitory concentration (IC50) was 272 nM at JAK2 (setting [1]) and 31 nM at JAK1 (setting [2]).

For the molecule `CC(C)(C)OC(=O)N1Cc2cc(Nc3nn(C(CC#N)C4CC4)cc3C(N)=O)ccc2C1=O` (stereo not drawn) [Example 4-2, tert-butyl 5-{[4-carbamoyl-1-(2-cyano-1-cyclopropylethyl)-1H-pyrazol-3-yl]amino}-1-oxo-1,3-dihydro-2H-isoindole-2-carboxylate], the half-inhibitory concentration (IC50) on JAK2 (setting [1]) was 35 nM; at JAK1 (setting [2]) it was 2 nM.

Regarding `N#CCC(C1CC1)n1cc(C(N)=O)c(Nc2ccc(N3CCOCC3)cc2)n1` (stereo not drawn) [Example 4-17, 1-(2-cyano-1-cyclopropylethyl)-3-[(4-morpholin-4-ylphenyl)amino]-1H-pyrazole-4-carboxamide], the half-inhibitory concentration (IC50) was determined as 43 nM at JAK2 (setting [1]) and 13 nM on JAK1 (setting [2]).

Take `N#CCc1ccc(Nc2nn(C(CC#N)C3CC3)cc2C(N)=O)cc1` (stereo not drawn) [Example 4-8, 1-(2-cyano-1-cyclopropylethyl)-3-{[4-(cyanomethyl)phenyl]amino}-1H-pyrazole-4-carboxamide]: the half-inhibitory concentration (IC50) on JAK2 (setting [1]) is 24 nM; at JAK1 (setting [2]) it was 5 nM.

For the molecule `N#CC[C@@H](C1CCN(C(=O)OC2CCCC2)CC1)n1cc(C(N)=O)c(Nc2ccc(F)cc2)n1` [Example 11-6, cyclopentyl 4-[(1S)-1-{4-carbamoyl-3-[(4-fluorophenyl)amino]-1H-pyrazol-1-yl}-2-cyanoethyl]piperidine-1-carboxylate], the IC50 at JAK2 (setting [1]) turned out to be 1200 nM; on JAK1 (setting [2]), 69 nM.

Consider `N#CCC(C1CC1)n1cc(C(N)=O)c(Nc2cccc(C#N)c2)n1` (stereo not drawn) [Example 4-16, 1-(2-cyano-1-cyclopropylethyl)-3-[(3-cyanophenyl)amino]-1H-pyrazole-4-carboxamide], for which the IC50 at JAK2 (setting [1]) stood at 64 nM; on JAK1 (setting [2]), 19 nM.

Turning to `C[C@H](CC#N)n1cc(C(N)=O)c(Nc2ccccc2)n1` (single isomer, unassigned) [Example 17-2, 1-[(2S or 2R)-1-cyanopropan-2-yl]-3-(phenylamino)-1H-pyrazole-4-carboxamide], the IC50 on JAK2 (setting [3]) was found to be 469 nM; at JAK1 (setting [4]), 47 nM.

Take `CN1C(=O)c2ccc(Nc3nn(C(CC#N)C4CC4)cc3C(N)=O)cc2C1(C)C` (stereo not drawn) [Example 4-30, 1-(2-cyano-1-cyclopropylethyl)-3-[(2,3,3-trimethyl-1-oxo-2,3-dihydro-1H-isoindol-5-yl)amino]-1H-pyrazole-4-carboxamide]: the values for the IC50 on JAK2 (setting [1]) and at JAK1 (setting [2]) were 226 nM and 15 nM, respectively.

As to `CC(C)(CC#N)n1cc(C(N)=O)c(Nc2ccccc2)n1` [Example 1-21, 1-(2-cyano-1,1-dimethylethyl)-3-(phenylamino)-1H-pyrazole-4-carboxamide], the values for the IC50 on JAK2 (setting [1]) and on JAK1 (setting [2]) were 103 nM and 12 nM, respectively.

For `N#CCC(C1CC1)n1cc(C(N)=O)c(Nc2ccc(-c3cnco3)cc2)n1` (stereo not drawn) [Example 4-24, 1-(2-cyano-1-cyclopropylethyl)-3-{[4-(1,3-oxazol-5-yl)phenyl]amino}-1H-pyrazole-4-carboxamide], the IC50 at JAK2 (setting [1]) came to 262 nM; on JAK1 (setting [2]), 41 nM.

As to `N#CCCc1cccc(Nc2nn(C(CC#N)C3CC3)cc2C(N)=O)c1` (stereo not drawn) [Example 4-7, 1-(2-cyano-1-cyclopropylethyl)-3-{[3-(2-cyanoethyl)phenyl]amino}-1H-pyrazole-4-carboxamide], the IC50 on JAK2 (setting [1]) stood at 73 nM; at JAK1 (setting [2]), 13 nM.
